Data set [1] concerns Tetranychus urticae. Nature of the data set: Spray test of Spinosad and tocopheryl acetate on bean plants (Vicia faba), leaf protection (Example 13). Format: in vivo. Conditions: single active, leaf protection 7 days after mites placed, average of four evaluations. From the text:
Using the alternative method for determining synergism the effect of each mixture of Spinosad and tocopheryl acetate is compared with the effect of the same rate of each of the active ingredients used alone.

In data set [2] the test system is Trichostrongylus colubriformis. Nature of the data set: Larvae feeding inhibition study (Example 23). The following applies: tested alone, in the tested dose range. From the text: (§1) The calculations done according to Wadley and shown in Table 23 indicate that synergistic action of Ivermectin and tocopheryl acetate and Doramectin and tocopheryl acetate was pre-sent in the larvae feed inhibition study. The synergistic action of Ivermectin and tocepheryl acetate in the H. contortus experiment is of particular interest because the H. contortus iso-late used was Ivermectin resistant.

Data set [3] relates to Teladorsagia (Ostertagia) circumcincta. Kind of data set: Larvae feeding inhibition study (Example 23). The following applies: tested alone, in the tested dose range.
Excerpt: as §1

The subject of data set [4] is Haemonchus contortus. Nature of the data set: Larvae feeding inhibition study (Example 23). Conditions: tested alone, in the tested dose range.
Excerpt: as §1

The test system of data set [5] is cat fleas (Ctenocephalides felis felis) adult. Kind of data set: In vitro contact test on adult fleas (Example 25). Conditions: tested alone.
For data set [6], the system named is larvae of Lucilia cuprina (sheep blowfly).
Excerpt: A mixture of Spinosad and tocopheryl acetate, all-rac alpha, Ph.
In data set [7] the test system is cat fleas (Ctenocephalides felis felis) larvae. Nature of the data set: In vitro contact test on flea larvae (Example 25). Conditions: tested alone.
Data set [8] concerns adult sea lice (Lepeophtheirus salmonis). The following applies: tested alone at various concentrations. As for the experimental part:
Eur. 5th Ed was studied on adult sea lice (Lepeophtheirus salmonis), a fish parasite, in seawater in Petri dishes. Emamectin benzoate and tocopheryl aceate were tested at various concentrations. In addition, mixtures of Emamectin benzoate and tocopheryl aceate, ratio 1:10 based on weight, were tested as well.

Data set [9] deals with Onchocerca lienalis microfilariae. Kind of data set: Microfilariae mobility test (Example 26). The following applies: alone, in the concentration range tested.
For data set [10], the system named is cat fleas (Ctenocephalides felis felis) larvae. Nature of the data set: In vitro larvae test based on systemic activity (Example 25). The following applies: tested alone.
Data set [11] deals with Dysdercus cingulatus nymphs. Nature of the data set: Topical application of Abamectin/nicotinamide acetone solutions, LD50 (Example 7). Format: in vivo. Conditions: sum of Abamectin and nicotinamide; mortality recorded 48 h after applying. How it is done:
A range of Abamectin solutions in acetone was prepared. Similarly, a range of nicotinamide solutions was prepared. Mixed solutions of Abamectin and nicotinamide in acetone were prepared as well. Nymphs of Dysdercus cingulatus were treated topically with either an Abamectin acetone solution (2 μl), a nicotinamide acetone solution (2 μl) or mixed solutions (2 μl).
The Dysdercus cingulatus mortality was recorded 48 h after applying the products. Log dose-mortality curves were constructed for the Abamectin, the nicotinamide and for the mixed solutions. The LD50 values reflect the sum of Abamectin and nicotinamide (active ingredients) present at LD50.
From the observed LD50 values for Abamectin and nicotinamide expected LD50 values for the mixtures were calculated according to Wadley's formula.

For data set [12], the system named is Spodoptera exigua larvae. Kind of data set: whole plant or invertebrate. Conditions: read-out: Observed mortality (%).
Protocol: (§2) The efficacy of an Abamectin 18 g/l emulsifiable concentrate formulation (EC) was tested on Spodoptera exiqua larvae on Tradescani crassifolia leaves. The test on Spodoptera exigua was done as a dip-test where Tradescani crassifolia leaves were dipped in the various tests solutions and dried. Afterwards, each leaf was infested with 5 Spodoptera exigua larvae.
(§3) Besides testing the Abamectin 18 g/l EC formulation, Abamectin 18 g/l EC formulation was tested together with 4.5 g/l and 72 g/l nicotinamide. An EC formulation comprising nicotinamide was included in the test as well.
The subject of data set [13] is Dysdercus cingulatus nymphs. In kind it is in vivo. The following applies: 2000 ng applied on each nymph; 24 h after applying. As for the experimental part:
A range of Abamectin solutions in acetone was prepared. Similarly, a range of tocopherol, all-rac alpha, solutions in acetone was prepared. Abamectin solution (2 μl), tocopherol solution (2 μl) or both were applied topically on nymphs of Dysdercus cingulatus. Abamectin was applied dorsally while tocopherol was applied ventrally. […] The mortality of the nymphs was recorded 24 h after applying the solutions.

The subject of data set [14] is Dysdercus cingulatus nymphs. Nature of the data set: Topical application of Abamectin/tocopherol acetone solutions, LD50 (Example 5). Format: in vivo. The following applies: sum of Abamectin and tocopherol; mortality recorded 48 h after applying. How it is done: A range of Abamectin solutions in acetone was prepared. Similarly, a range of tocopherol, all-rac alpha, solutions was prepared. Mixed solutions of Abamectin and tocopherol in acetone were prepared as well. Nymphs of Dysdercus cingulatus were treated topically with either an Abamectin acetone solution (2 μl), a tocopherol acetone solution (2 μl) or mixed solutions (2 μl). The Dysdercus cingulatus mortality was recorded 48 h after applying the products.
Log dose-mortality curves were constructed for the Abamectin and the tocopherol treatments. LD50 values based on the sum of Abamectin and tocopherol contents (ng active ingredient(s) per nymph) were calculated.
From the observed LD50 values for Abamectin and tocopherol expected LD50 values for the mixtures were calculated according to Wadley's formula.

Data set [15] concerns Dysdercus cingulatus nymphs. Format: in vivo. Conditions: in total 20,000 ng/nymph applied dorsally; two replicates of ten nymphs. How it is done: Abamectin, Ivermectin and tocopherol solutions in acetone were prepared. Mixed solutions of either Abamectin or Ivermectin and tocopherol were also prepared. Nymphs of Dysdercus cingulatus were treated topically with Abamectin acetone solution (20,000 ng/nymph), Ivermectin acetone solution (20,000 ng/nymph), a tocopherol acetone solution (20,000 ng/nymph) or a solution containing Abamectin and tocopherol or Ivermectin and tocopherol in the ratio 1:3 (20,000 ng total/nymph). The solutions were applied dorsally on the nymphs.
The Dysdercus cingulatus mortality was followed over time and recorded. Log time-mortality curves were constructed for the Abamectin and Ivermectin solutions and for the mixtures with tocopherol. An LT50 value was calculated for each application.

Data set [16] deals with Spodoptera exigua larvae. Conditions: single ingredient, 10 ppm in tests solution.
Protocol: as §2, §3

For the molecule `CC(=O)Oc1c(C)c(C)c2c(c1C)CCC(C)(CCC[C@H](C)CCC[C@H](C)CCCC(C)C)O2` (mixture of isomers) [tocopheryl acetate], the “% protection” value is listed as 15% in data set [1] (100 g/ha) and 8.8% in [1] (300 g/ha). The feeding inhibition activity entry in [2], in [3] and in data set [4] was “did not have any feeding inhibition activity” throughout. Besides, the “activity in its own right” value in data set [5], in data set [7], in data set [8] and in data set [10] was “did not have any activity” each time. The “activity on the larvae” value in data set [6] was “no activity”. The “effect on mobility of the microfilaria” value in [9] is “did not affect the mobility”.

As for `NC(=O)c1cccnc1` [nicotinamide], the LD50obs in data set [11] was >20,000 ng AI(s) per nymph. Besides, the mortality at 10 ppm in data set [12] was 0%.

As to Abamectin, the LD50obs in [11] is recorded as 126 ng AI(s) per nymph; in [14] it was 1595 ng AI(s) per nymph. Further, the “% Mortality for each ingredient” value in data set [13] turned out to be 74%. Further, the LT50 in [15] was 5.3 h. For the same molecule, the “Observed mortality (%)” value in data set [16] is 10%.

These data come from US20090111759A1, “Synergistic Combination of Glutamate-and Gaba-Gated Chloride Agonist Pesticide and at Least One Vitamin E, Niacin, or Derivatives Thereof” (priority 2006, published 2009).
